Assay results as given in patent US20230123334A1, “AMINO LIPID COMPOUND, PREPARATION METHOD THEREFOR, AND APPLICATION THEREOF” (SHENZHEN SHENXIN BIOTECHNOLOGY CO., LTD., priority 2020, published 2023).

Columns and labels:
Type in all cases: cell-based
[1] = system: MCF7 cells; assay: Transfection of MCF7 cell line, DNA vectors; design: concentration or dose not given beside the values; settings: plasmid DNA, GFP cells / total cells
In short: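 Read-out: GFP-positive cells as % of all Hoechst-stained nuclei after 96-well transfection of MCF7 cells grown in serum-supplemented DMEM. Positive control was Lipofectamine2000, used per manufacturer's protocol.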

[2] = system: cardiomyocytes; assay: Screening as DNA vectors in cardiomyocytes; design: concentration or dose not given beside the values; settings: method as Example 4
In short: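 hESC-derived cardiomyocytes in DMEM with 10% FBS were transfected with a GFP DNA vector; Lipofectamine Stem served as positive control. Read-out: percentage of GFP-positive cells relative to total cells counted by Hoechst nuclear stain.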

[3] = system: Hela cells; assay: Transfection of Hela cell line, mRNA vectors; settings: 50 ng EGFP mRNA per well
In short: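 Transfection efficiency was scored as GFP-fluorescent cells over Hoechst-stained total nuclei, with Lipofectamine2000 as reference reagent. Each well of HeLa cells, grown in DMEM plus 10% FBS, received 50 ng EGFP mRNA.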

[4] = system: Hela cells; assay: Transfection of Hela cell line, DNA vectors; settings: 75 ng plasmid DNA, GFP cells / total cells
In short: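 Amino lipid/DOPE liposomes in sodium acetate pH 5.6 were complexed with 75 ng psin-EGFP-IRES-Puro plasmid for 30 min at room temperature, then mixed with 3-5×10^4 Hela cells in DMEM/10% FBS at 37° C. Hoechst stain after 20-24 h, imaging after a further 20-24 h. Efficiency = GFP-positive cells / total nuclei.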

[5] = system: embryonic stem cells (hESC2); assay: Screening as mRNA vectors in embryonic stem cells; settings: 50 ng EGFP mRNA per well
In short: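 EGFP mRNA (50 ng per well) transfected into hESC2 cells grown in mTeSR1; Lipofectamine Stem served as positive control. Read-out: GFP-fluorescent cells as percentage of total cells.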

[6] = system: HEK293 cells; assay: Preliminary screening as mRNA vectors, EGFP mRNA transfection of HEK293 cells; settings: HEK293 cells, 96-well plates, EGFP mRNA 50 ng per well; percentage of GFP fluorescent cells relative to total number of cells (Hoechst)
In short: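 Each well of HEK293 cells received 50 ng of EGFP mRNA. Efficiency was expressed as percent GFP-expressing cells over Hoechst-defined total cell number.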

[7] = system: embryonic stem cells (hESC2); assay: Screening as DNA vectors in embryonic stem cells, flow cytometry; settings: 75 ng plasmid DNA, 48 hours after transfection, flow cytometer
In short: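 hESC2 cells in mTeSR1 on matrigel transfected with 75 ng pSin-EGFP-IRES-Puro complexed with amino lipid/DOPE liposomes formed in sodium acetate pH 5.6; 37 °C, 5% CO2. After 48 h, GFP-positive cells counted by flow cytometry (≥2000 cells), efficiency also expressed relative to Lipofectamine Stem.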

[8] = system: HEK293 cells; assay: Preliminary screening as DNA vectors, GFP transfection of HEK293 cells; settings: HEK293 cells; lipid/DOPE liposome with 75 ng plasmid DNA (psin-EGFP-IRES-Puro); number of cells expressing GFP divided by total number of nuclei (Hoechst)
In short: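 Lipid + DOPE liposomes (NaOAc, pH 5.6) complexed w/ 75 ng psin-EGFP-IRES-Puro, 30 min RT; added to 3-5×10^4 HEK293/well, 37° C. Hoechst 0.2 μg/mL at 20-24 h, imaged after further 20-24 h. Efficiency = GFP+ cells / total nuclei.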

[9] = system: cardiomyocytes; assay: Screening as mRNA vectors in cardiomyocytes; settings: 50 ng EGFP mRNA per well
In short: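 Cardiomyocytes differentiated from hESC, in DMEM with 10% FBS, were transfected with 50 ng EGFP mRNA per well. The read-out was GFP-positive cells as a percentage of Hoechst-stained nuclei, with Lipofectamine Stem as positive control.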

[10] = system: MCF7 cells; assay: Transfection of MCF7 cell line, mRNA vectors; settings: 50 ng EGFP mRNA per well
In short: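 Efficiency was scored as the fraction of GFP-fluorescent cells over all Hoechst-counted cells after delivery of 50 ng EGFP mRNA per well. Cells were MCF7 grown in serum-supplemented DMEM, and Lipofectamine2000 served as reference.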

Row | Structure (SMILES) | Absolute DNA transfection efficiency in MCF7 cells [1] [%] | Absolute DNA transfection efficiency in cardiomyocytes [2] [%] | Absolute mRNA transfection efficiency in Hela cells [3] [%] | Absolute DNA transfection efficiency in Hela cells [4] [%] | Absolute mRNA transfection efficiency in embryonic stem cells [5] [%] | Absolute mRNA transfection efficiency in HEK293 cells [6] [%] | Absolute DNA transfection efficiency in embryonic stem cells [7] [%] | Absolute DNA transfection efficiency in HEK293 cells [8] [%] | Absolute mRNA transfection efficiency in cardiomyocytes [9] [%] | Absolute mRNA transfection efficiency in MCF7 cells [10] [%]
1 | CCCCCCCCCCCCCCSc1nc(NCCN2CCN(C)CC2)nc(SCCCCCCCCC)n1 [Compound S9S14D5] | 17.9 | 4.6 | 7.32 | 7.3 | 22.5 | 32.3 | 0.7 | 14.6 | 0.6 | 2.1
2 | CCCCCCCCCCCCCCSc1nc(NCC2CCN(C)CC2)nc(SCCCCCCCCC)n1 [Compound S9S14D10] | 50.5 | 7.6 | 7.5 | 7.2 | 23.1 | 91.0 | 0.7 | 14.5 | 34.4 | 50.3
3 | CCCCCCCCCCCCCCCSc1nc(NCCCN(C)C)nc(SCCCCCCCCC)n1 [Compound S9S15D6] | 48.4 | 6.9 | 23.7 | 23.7 | 2.5 | 87.2 | 3.7 | 47.4 | 12.9 | 47.3
4 | CCCCCCCCCCCCSc1nc(NCCN2CCCC2)nc(SCCCCCCCCC)n1 [Compound S9S12D3] | 3.0 | 2.7 | 2.4 | 2.4 | 21.4 | 5.3 | 5.3 | 4.9 | 65.7 | 6.5
5 | CCCCCCCCCCCCCCCSc1nc(NCCCN2CCN(C)CC2)nc(SCCCCCCCCC)n1 [Compound S9S15D9] | 22.5 | 1.3 | 12.6 | 12.6 | 13.3 | 40.4 | 21.6 | 25.3 | 7.1 | 27.6
6 | CCCCCCCCCCCCCCSc1nc(NCCCN2CCOCC2)nc(SCCCCCCCCC)n1 [Compound S9S14D8] | 6.4 | 6.1 | 10.8 | 10.8 | 0.3 | 11.6 | 0.7 | 21.0 | 1.0 | 14.8
7 | CCCCCCCCCCCCCCSc1nc(NCCN2CCCC2)nc(SCCCCCCCCC)n1 [Compound S9S14D3] | 1.3 | 0.5 | 2.5 | 2.4 | 19.7 | 2.3 | 1.6 | 5.1 | 72.4 | 4.4
8 | CCCCCCCCCCCCCCCSc1nc(NCCCN2CCOCC2)nc(SCCCCCCCCC)n1 [Compound S9S15D8] | 3.0 | 2.0 | 11.1 | 11.1 | 0.4 | 5.4 | 1.9 | 22.2 | 0.6 | 13.5
9 | CCCCCCCCCCCCCCCSc1nc(NCC2CCN(C)CC2)nc(SCCCCCCCCC)n1 [Compound S9S15D10] | 58.8 | 24.8 | 28.7 | 28.7 | 23.0 | 94.8 | 16.8 | 56.1 | 4.3 | 49.4
10 | CCCCCCCCCCCCSc1nc(NCCCN2CCOCC2)nc(SCCCCCCCCC)n1 [Compound S9S12D8] | 7.7 | 5.8 | 15.8 | 15.8 | 1.7 | 13.8 | 11.1 | 30.4 | 0.9 | 12.6
11 | CCCCCCCCCCCCSc1nc(NCCN2CCN(C)CC2)nc(SCCCCCCCCC)n1 [Compound S9S12D5] | 32.0 | 1.7 | 10.8 | 10.8 | 27.3 | 57.5 | 4.6 | 21.0 | 1.2 | 27.3
12 | CCCCCCCCCCCCSc1nc(NCC2CCN(C)CC2)nc(SCCCCCCCCC)n1 [Compound S9S12D10] | 46.0 | 2.9 | 8.9 | 8.9 | 25.4 | 82.9 | 14.0 | 17.9 | 3.8 | 40.9
